Key:
human EP1 receptor = target: T1, human EP1 receptor (Homo sapiens, UniProt P34995); assay: Human EP1 receptor binding assay (displacement of 3H-prostaglandin E2 from 293S cell membranes); conditions: displacement of 3H-prostaglandin E2, 293S membranes
T1 construct: expressed in transfected cells; membranes
T1 sequence (P34995 1-402): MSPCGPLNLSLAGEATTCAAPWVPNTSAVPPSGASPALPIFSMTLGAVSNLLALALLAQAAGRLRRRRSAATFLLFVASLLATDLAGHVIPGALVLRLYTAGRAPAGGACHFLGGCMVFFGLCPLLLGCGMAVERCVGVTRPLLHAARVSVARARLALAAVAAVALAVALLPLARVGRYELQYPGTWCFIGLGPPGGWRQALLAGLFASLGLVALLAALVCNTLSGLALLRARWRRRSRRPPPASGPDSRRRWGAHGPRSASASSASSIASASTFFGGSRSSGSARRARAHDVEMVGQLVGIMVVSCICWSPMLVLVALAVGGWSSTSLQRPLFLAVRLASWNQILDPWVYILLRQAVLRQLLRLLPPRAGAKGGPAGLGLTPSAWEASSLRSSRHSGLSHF
Description: (§1) The compounds of Formula I, which are useful in the methods of the present invention, bind to the prostaglandin E2 type 4 receptor (EP4 receptor). The full length coding sequence for the human EP1 receptor is made in accordance with the procedure in Funk et al., Journal of Biological Chemistry, 1993, 268, 26767-26772. The full length rat EP2 receptor is made in accordance with the procedure in Nemoto et al., Prostaglandins and other Lipid Mediators, 1997, 54, 713-725. The full length coding sequence for the human EP3 receptor is made in accordance with the procedure in Regan et al., British Journal of Pharmacology, 1994, 112, 377-385. The full length coding sequence for the rat EP4 receptor is made in accordance with the procedure in Sando et al., Biochem. Biophys. Res. Comm. 1994, 200, 1329-1333. These full length receptors are used to prepare 293S cells expressing the human EP1, rat EP2, human EP3 or rat EP4 receptors.
(§2) The full length receptors described above are used to prepare 293S cells expressing the EP1, EP2, EP3, and EP4 receptors. […]
(§3) Membrane Preparation: All operations are performed at 4° C. […] Pelleted membranes are resuspended to 3-10 mg protein per ml, protein concentration being determined of the method of Bradford [Bradford, M., Anal. Biochem. 1976, 72, 248]. […]

rat EP2 receptor = target: T2, rat EP2 receptor (Rattus norvegicus, UniProt Q62928); assay: Rat EP2 receptor binding assay (displacement of 3H-prostaglandin E2 from 293S cell membranes); conditions: displacement of 3H-prostaglandin E2, 293S membranes
T2 construct: The full length rat EP2 receptor is made in accordance with the procedure in Nemoto et al; expressed in transfected cells; membranes
T2 sequence (Q62928 whole entry): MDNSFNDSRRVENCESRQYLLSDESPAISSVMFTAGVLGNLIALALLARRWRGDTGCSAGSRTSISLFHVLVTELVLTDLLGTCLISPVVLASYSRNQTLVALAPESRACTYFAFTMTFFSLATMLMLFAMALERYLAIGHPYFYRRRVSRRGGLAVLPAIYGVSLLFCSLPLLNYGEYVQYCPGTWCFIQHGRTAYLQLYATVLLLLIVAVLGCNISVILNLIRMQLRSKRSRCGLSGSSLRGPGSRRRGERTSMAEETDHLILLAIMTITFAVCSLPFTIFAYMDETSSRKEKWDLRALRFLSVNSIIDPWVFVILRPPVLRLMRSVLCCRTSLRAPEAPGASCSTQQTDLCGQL
Description: as §1, §2, §3

human EP3 receptor = target: T3, human EP3 receptor (Homo sapiens, UniProt P43115); assay: Human EP3 receptor binding assay (displacement of 3H-prostaglandin E2 from 293S cell membranes); conditions: displacement of 3H-prostaglandin E2, 293S membranes
T3 construct: expressed in transfected cells; membranes
T3 sequence (P43115 1-390): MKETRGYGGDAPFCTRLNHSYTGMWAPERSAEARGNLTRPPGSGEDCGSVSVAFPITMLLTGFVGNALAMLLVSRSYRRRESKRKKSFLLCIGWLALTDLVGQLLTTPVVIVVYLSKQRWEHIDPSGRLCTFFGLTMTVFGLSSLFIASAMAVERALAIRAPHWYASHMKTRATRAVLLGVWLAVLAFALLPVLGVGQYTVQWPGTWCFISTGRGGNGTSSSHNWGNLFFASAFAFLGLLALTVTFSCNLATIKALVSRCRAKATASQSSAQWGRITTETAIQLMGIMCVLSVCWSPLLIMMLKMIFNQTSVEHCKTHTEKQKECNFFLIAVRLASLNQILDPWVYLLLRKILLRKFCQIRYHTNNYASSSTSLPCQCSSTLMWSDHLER
Description: as §1, §2, §3

rat EP4 receptor = target: T4, rat EP4 receptor (Rattus norvegicus, UniProt P43114); assay: Whole cell 3H-PGE2 binding with Scatchard analysis in 293S transfectants; conditions: cell line selected for compound screening
T4 construct: expressed in transfected cells
T4 sequence (P43114 whole entry): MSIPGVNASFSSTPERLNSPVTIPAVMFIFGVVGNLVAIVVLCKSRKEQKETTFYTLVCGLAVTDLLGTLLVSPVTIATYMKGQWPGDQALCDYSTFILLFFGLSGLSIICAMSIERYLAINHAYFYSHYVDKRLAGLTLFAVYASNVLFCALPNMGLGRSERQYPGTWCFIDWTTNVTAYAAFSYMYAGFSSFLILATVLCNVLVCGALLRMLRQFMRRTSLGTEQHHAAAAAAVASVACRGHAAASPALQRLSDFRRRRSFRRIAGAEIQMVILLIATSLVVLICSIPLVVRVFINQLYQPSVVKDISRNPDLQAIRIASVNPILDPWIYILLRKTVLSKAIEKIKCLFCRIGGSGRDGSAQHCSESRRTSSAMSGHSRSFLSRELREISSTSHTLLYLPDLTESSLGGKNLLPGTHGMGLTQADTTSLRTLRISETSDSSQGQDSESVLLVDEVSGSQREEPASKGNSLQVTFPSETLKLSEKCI
Procedure: Clonal cell lines expressing the maximal number of receptors are chosen following a whole cell ^3H-PGE2 binding assay using unlabeled PGE2 as a competitor. […] Constitutive expression of the receptor in parental 293-S cells is negligible. A stable cell line containing the rat EP4 receptor is grown in Dulbecco's Mosified Eagle Medium/F12 (DMEM/F12) containing 10% fetal bovine serum and G418 (500 μg/ml) to 80% confluency.

Row | Structure (SMILES) | IC50 (human EP1 receptor) | IC50 (rat EP2 receptor) | IC50 (human EP3 receptor) | Kd (rat EP4 receptor)
1 | O=C(O)c1ccc(CCCN2C(=O)CC[C@@H]2CC[C@@H](O)Cc2cccc(C(F)(F)F)c2)s1 [Compound 3M] | > 1000 nM | 463 nM | > 1000 nM | –
2 | CCCCC[C@H](O)/C=C/[C@H]1[C@H](O)CC(=O)[C@@H]1C/C=C\CCCC(=O)O [PGE2, Prostaglandin E2] | – | – | – | 2.9 nM
